Results taken from patent publication US20250282799A1, “SUBSTITUTED PYRIDO[4,3-d]PYRIMIDINES AS KRAS MODULATORS” (Alterome Therapeutics, Inc., priority 2023, published 2025).

Tested on: KRAS G12V dependent lung adenocarcinoma cell line, NCI-H441
Test: Cellular pERK (Thr202/Tyr204) FRET/HTRF assay
Type: cell-based
Conditions: Homo sapiens, NCI-H441, cellular pERK (Thr202/Tyr204) HTRF, NCI-H441 cells
Method in brief: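 Using a mix-and-read HTRF kit, phospho-ERK (Thr202/Tyr204) was detected in NCI-H441 lysates following 1 hr compound incubation at 37 °C, 5% CO2. Cells had been seeded overnight beforehand, and IC50 was derived by curve fitting.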

Work on `[2H]C([2H])(Oc1nc(N2CCOC[C@H]3[C@H](F)[C@H]32)c2cnc(-c3cc(O)cc4cccc(C#C)c34)c(F)c2n1)[C@@]12CCCN1C[C@H](F)C2` [Example 300, 5-ethynyl-4-(8-fluoro-4-((1S,7S,8S)-8-fluoro-5-oxa-2-azabicyclo[5.1.0]octan-2-yl)-2-(((2R,7aS)-2-fluorotetrahydro-1H-pyrrolizin-7a(5H)-yl)methoxy-d2)pyrido[4,3-d]pyrimidin-7-yl)naphthalen-2-ol] yielded an IC50 of under 50 nM.
`C#Cc1c(F)ccc2cc(N)cc(-c3ncc4c(N5CCOC[C@@H]6[C@@H](Cl)[C@@H]65)nc(OC[C@@H]5CCCN5C)nc4c3F)c12` [Example 301, 4-(4-((1R,7R,8R)-8-chloro-5-oxa-2-azabicyclo[5.1.0]octan-2-yl)-8-fluoro-2-(((S)-1-methylpyrrolidin-2-yl)methoxy)pyrido[4,3-d]pyrimidin-7-yl)-5-ethynyl-6-fluoronaphthalen-2-amine] gave an IC50 of 50 to 500 nM.
For `C#Cc1c(F)ccc2cc(N)cc(-c3ncc4c(N5CCOC[C@H]6[C@H](Cl)[C@H]65)nc(OC[C@@H]5CCCN5C)nc4c3F)c12` [Example 302, 4-(4-((1S,7S,8S)-8-chloro-5-oxa-2-azabicyclo[5.1.0]octan-2-yl)-8-fluoro-2-(((S)-1-methylpyrrolidin-2-yl)methoxy)pyrido[4,3-d]pyrimidin-7-yl)-5-ethynyl-6-fluoronaphthalen-2-amine], the IC50 was under 50 nM.
`[2H]C([2H])(Oc1nc(N2CCOC[C@H]3[C@H](F)[C@H]32)c2c(F)nc(-c3cc(N)cc4ccc(F)c(C#C)c34)c(F)c2n1)[C@@]12CCCN1C[C@H](F)C2` [Example 303, 4-(5,8-Difluoro-4-((1S,7S,8S)-8-fluoro-5-oxa-2-azabicyclo[5.1.0]octan-2-yl)-2-(((2R,7aS)-2-fluorotetrahydro-1H-pyrrolizin-7a(5H)-yl)methoxy-d2)pyrido[4,3-d]pyrimidin-7-yl)-5-ethynyl-6-fluoronaphthalen-2-amine] gave an IC50 of under 50 nM.
`[2H]C([2H])(Oc1nc(N2CC[C@@H](C#N)C[C@H]3[C@H](F)[C@H]32)c2cnc(-c3cc(N)cc4ccc(F)c(C#C)c34)c(F)c2n1)[C@@]12CCCN1C[C@H](F)C2` [Example 304, (1S,5S,7R,8S)-2-(7-(3-amino-8-ethynyl-7-fluoronaphthalen-1-yl)-8-fluoro-2-(((2R,7aS)-2-fluorotetrahydro-1H-pyrrolizin-7a(5H)-yl)methoxy-d2)pyrido[4,3-d]pyrimidin-4-yl)-8-fluoro-2-azabicyclo[5.1.0]octane-5-carbonitrile] gave an IC50 of under 50 nM.
`[2H]C([2H])(Oc1nc(N2CC[C@@H](C#N)C[C@@H]3[C@@H](F)[C@@H]32)c2cnc(-c3cc(N)cc4ccc(F)c(C#C)c34)c(F)c2n1)[C@@]12CCCN1C[C@H](F)C2` [Example 305, (1R,5S,7S,8R)-2-(7-(3-amino-8-ethynyl-7-fluoronaphthalen-1-yl)-8-fluoro-2-(((2R,7aS)-2-fluorotetrahydro-1H-pyrrolizin-7a(5H)-yl)methoxy-d2)pyrido[4,3-d]pyrimidin-4-yl)-8-fluoro-2-azabicyclo[5.1.0]octane-5-carbonitrile] was tested, and the IC50 was 50 to 500 nM.
`[2H]C([2H])(Oc1nc(N2CC[C@H](C#N)C[C@H]3[C@H](F)[C@H]32)c2cnc(-c3cc(N)cc4ccc(F)c(C#C)c34)c(F)c2n1)[C@@]12CCCN1C[C@H](F)C2` [Example 306, (1S,5R,7R,8S)-2-(7-(3-amino-8-ethynyl-7-fluoronaphthalen-1-yl)-8-fluoro-2-(((2R,7aS)-2-fluorotetrahydro-1H-pyrrolizin-7a(5H)-yl)methoxy-d2)pyrido[4,3-d]pyrimidin-4-yl)-8-fluoro-2-azabicyclo[5.1.0]octane-5-carbonitrile] was tested, and the IC50 was 50 to 500 nM.
`[2H]C([2H])(Oc1nc(N2CC[C@H](C#N)C[C@@H]3[C@@H](F)[C@@H]32)c2cnc(-c3cc(N)cc4ccc(F)c(C#C)c34)c(F)c2n1)[C@@]12CCCN1C[C@H](F)C2` [Example 307, (1R,5R,7S,8R)-2-(7-(3-amino-8-ethynyl-7-fluoronaphthalen-1-yl)-8-fluoro-2-(((2R,7aS)-2-fluorotetrahydro-1H-pyrrolizin-7a(5H)-yl)methoxy-d2)pyrido[4,3-d]pyrimidin-4-yl)-8-fluoro-2-azabicyclo[5.1.0]octane-5-carbonitrile] gave an IC50 of 50 to 500 nM.
`[2H]C([2H])(Oc1nc(N2CC[C@@H](C#N)C[C@H]3[C@@H](F)[C@H]32)c2cnc(-c3cc(N)cc4ccc(F)c(C#C)c34)c(F)c2n1)[C@@]12CCCN1C[C@H](F)C2` [Example 308, (1S,5S,7R,8R)-2-(7-(3-amino-8-ethynyl-7-fluoronaphthalen-1-yl)-8-fluoro-2-(((2R,7aS)-2-fluorotetrahydro-1H-pyrrolizin-7a(5H)-yl)methoxy-d2)pyrido[4,3-d]pyrimidin-4-yl)-8-fluoro-2-azabicyclo[5.1.0]octane-5-carbonitrile] showed an IC50 of 50 to 500 nM.
`[2H]C([2H])(Oc1nc(N2CC[C@H](C#N)C[C@H]3[C@@H](F)[C@H]32)c2cnc(-c3cc(N)cc4ccc(F)c(C#C)c34)c(F)c2n1)[C@@]12CCCN1C[C@H](F)C2` [Example 310, (1S,5R,7R,8R)-2-(7-(3-amino-8-ethynyl-7-fluoronaphthalen-1-yl)-8-fluoro-2-(((2R,7aS)-2-fluorotetrahydro-1H-pyrrolizin-7a(5H)-yl)methoxy-d2)pyrido[4,3-d]pyrimidin-4-yl)-8-fluoro-2-azabicyclo[5.1.0]octane-5-carbonitrile] gave an IC50 of 50 to 500 nM.
For `[2H]C([2H])(Oc1nc(N2CC[C@@H](C#N)C[C@@H]3[C@H](F)[C@@H]32)c2cnc(-c3cc(N)cc4ccc(F)c(C#C)c34)c(F)c2n1)[C@@]12CCCN1C[C@H](F)C2` [Example 311, (1R,5S,7S,8S)-2-(7-(3-amino-8-ethynyl-7-fluoronaphthalen-1-yl)-8-fluoro-2-(((2R,7aS)-2-fluorotetrahydro-1H-pyrrolizin-7a(5H)-yl)methoxy-d2)pyrido[4,3-d]pyrimidin-4-yl)-8-fluoro-2-azabicyclo[5.1.0]octane-5-carbonitrile], the IC50 was 50 to 500 nM.
`[2H]C([2H])(Oc1nc(N2CCOC[C@H]3[C@H](F)[C@H]32)c2cnc(-c3cccc4ccc(Cl)c(C#C)c34)c(F)c2n1)[C@@]12CCCN1C[C@H](F)C2` [Example 318, (1S,7S,8S)-2-(7-(7-chloro-8-ethynylnaphthalen-1-yl)-8-fluoro-2-(((2R,7aS)-2-fluorotetrahydro-1H-pyrrolizin-7a(5H)-yl)methoxy-d2)pyrido[4,3-d]pyrimidin-4-yl)-8-fluoro-5-oxa-2-azabicyclo[5.1.0]octane] showed an IC50 of under 50 nM.
`[2H]C([2H])(Oc1nc(N2CCOC[C@H]3[C@H](F)[C@H]32)c2cnc(-c3cccc4cccc(C#C)c34)c(F)c2n1)[C@@]12CCCN1C[C@H](F)C2` [Example 319, (1S,7S,8S)-2-(7-(8-ethynylnaphthalen-1-yl)-8-fluoro-2-(((2R,7aS)-2-fluorotetrahydro-1H-pyrrolizin-7a(5H)-yl)methoxy-d2)pyrido[4,3-d]pyrimidin-4-yl)-8-fluoro-5-oxa-2-azabicyclo[5.1.0]octane] gave an IC50 of under 50 nM.
`[2H]C([2H])(Oc1nc(N2CCOC[C@H]3[C@H](Cl)[C@H]32)c2cnc(-c3cccc4ccc(Cl)c(C#C)c34)c(F)c2n1)[C@@]12CCCN1C[C@H](F)C2` [Example 320, (1S,7S,8S)-8-chloro-2-(7-(7-chloro-8-ethynylnaphthalen-1-yl)-8-fluoro-2-(((2R,7aS)-2-fluorotetrahydro-1H-pyrrolizin-7a(5H)-yl)methoxy-d2)pyrido[4,3-d]pyrimidin-4-yl)-5-oxa-2-azabicyclo[5.1.0]octane] gave an IC50 of under 50 nM.
`C#Cc1c(Cl)ccc2cc(N)cc(-c3ncc4c(N5CCOC[C@H]6[C@H](Cl)[C@H]65)nc(OC[C@@H]5CCCN5C)nc4c3F)c12` [Example 321, 6-chloro-4-(4-((1S,7S,8S)-8-chloro-5-oxa-2-azabicyclo[5.1.0]octan-2-yl)-8-fluoro-2-(((S)-1-methylpyrrolidin-2-yl)methoxy)pyrido[4,3-d]pyrimidin-7-yl)-5-ethynylnaphthalen-2-amine] showed an IC50 of under 50 nM.
For `C#Cc1cccc2cc(N)cc(-c3ncc4c(N5CCOC[C@H]6[C@H](Cl)[C@H]65)nc(OC[C@@H]5CCCN5C)nc4c3F)c12` [Example 322, 4-(4-((1S,7S,8S)-8-chloro-5-oxa-2-azabicyclo[5.1.0]octan-2-yl)-8-fluoro-2-(((S)-1-methylpyrrolidin-2-yl)methoxy)pyrido[4,3-d]pyrimidin-7-yl)-5-ethynylnaphthalen-2-amine], the IC50 was under 50 nM.
Work on `[2H]C([2H])(Oc1nc(N2CCOC[C@H]3[C@H](F)[C@H]32)c2c(OC(C)C)nc(-c3cc(N)cc4ccc(F)c(C#C)c34)c(F)c2n1)[C@@]12CCCN1C[C@H](F)C2` [Example 323, 5-ethynyl-6-fluoro-4-(8-fluoro-4-((1S,7S,8S)-8-fluoro-5-oxa-2-azabicyclo[5.1.0]octan-2-yl)-2-(((2R,7aS)-2-fluorotetrahydro-1H-pyrrolizin-7a(5H)-yl)methoxy-d2)-5-isopropoxypyrido[4,3-d]pyrimidin-7-yl)naphthalen-2-amine] yielded an IC50 of under 50 nM.
With `[2H]C([2H])(Oc1nc(N2CCOC[C@H]3[C@H](F)[C@H]32)c2cnc(-c3cc(O)cc4ccc(C)c(C#C)c34)c(F)c2n1)[C@@]12CCCN1C[C@H](F)C2` [Example 324, 5-ethynyl-4-(8-fluoro-4-((1S,7S,8S)-8-fluoro-5-oxa-2-azabicyclo[5.1.0]octan-2-yl)-2-(((2R,7aS)-2-fluorotetrahydro-1H-pyrrolizin-7a(5H)-yl)methoxy-d2)pyrido[4,3-d]pyrimidin-7-yl)-6-methylnaphthalen-2-ol] the IC50 was under 50 nM.
With `[2H]C([2H])(Oc1nc(N2CCOC[C@H]3[C@H](F)[C@H]32)c2cnc(-c3cccc4ccc(C)c(C#C)c34)c(F)c2n1)[C@@]12CCCN1C[C@H](F)C2` [Example 325, (1S,7S,8S)-2-(7-(8-ethynyl-7-methylnaphthalen-1-yl)-8-fluoro-2-(((2R,7aS)-2-fluorotetrahydro-1H-pyrrolizin-7a(5H)-yl)methoxy-d2)pyrido[4,3-d]pyrimidin-4-yl)-8-fluoro-5-oxa-2-azabicyclo[5.1.0]octane] the IC50 was under 50 nM.
